These results are taken from patent US20190225644A1, “MRNA CAP ANALOGS AND METHODS OF MRNA CAPPING” (ModernaTX, Inc., priority 2015, published 2019).

“And” between values parts separate entries of the source, which are not always exact repeats. Identical values can stand only once. Like-named read-outs stand apart in the source and are kept apart here.

Broadly, the IC50 is the concentration that inhibits the measured activity by half. Read a high IC50 as weaker potency. For orientation: koff means the first-order rate constant of dissociation. As usually defined, the Kd is the concentration at which binding is half-saturated. Higher therefore signals weaker binding.

The subject of assay [1] is HeLa Lysate. As to the kind of experiment: Cap competition assay in kinetic cell free in vitro translation (free cap analogs). In kind it is biochemical. The settings on record: free cap analog 0-100 uM against Cap1-tipped eGFP modRNA, fluorescence plateau. The protocol: The in vitro translation assay was conducted with the HeLa 1-step coupled IVT kit (ThermoFisher Scientific, Waltham, Mass.) according to the manufacturer's instructions to assess performance of new cap analogs as free compounds or as an integral part of capped mRNA. Cap analogs with affinity to eIF4E protein may reduce protein synthesis rate in cell-free translation. Further, RNAs containing such cap analogs (“Cap-modRNA”) show different potency of protein synthesis in cell-free translation.
For competition assays, the total volume of the cell-free translation reaction was increased to 27.8 uL by addition of either water or diluted free CAP analogs in water. The stock concentration of the free CAP analogs was 1 mM. With two-fold dilutions in water, the concentration was reduced sequentially. […] The CAP analogs used in this study were either commercial products serving as reference material (TriLink, San Diego, Calif.) or compounds disclosed herein. It is hypothesized that the small molecule cap analogs interfere with the assembly of the “closed loop” in a Kd-dependent fashion.
After the fluorescent signal in cell-free translation reaction reached a stable plateau, absolute values thereof were transferred to a statistical analysis program (GraphPad Software, La Jolla, Calif.) and curve fitting or IC50 calculations were derived with settings according to the instructions of the manufacturer.
The results from the cap competition assays are illustrated in FIGS. 1A-1C and 2A-2D. In this study, each of the modRNAs used comprises 1-methyl-pseudouridine, which replaces each uridine in the RNA sequence and 5-methyl cytidine, which replaces each cytidine in the RNA sequence. Further, Table 11 includes the IC50 values of certain compounds of the disclosure.

For assay [2], the target named is T1, eIF4E (Homo sapiens, UniProt P06730).
T1 sequence (P06730 32-217): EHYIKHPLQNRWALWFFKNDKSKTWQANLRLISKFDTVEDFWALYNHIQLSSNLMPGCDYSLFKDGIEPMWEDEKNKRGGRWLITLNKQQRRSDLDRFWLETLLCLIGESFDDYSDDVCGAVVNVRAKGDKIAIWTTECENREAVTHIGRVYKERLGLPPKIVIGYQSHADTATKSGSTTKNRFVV
Experimental: (§1) A sensor chip SA (GE Healthcare) is docked into a Biacore 3000 instrument.
(§2) Compound concentration series are injected over the immobilized protein serially in increasing concentration. Interaction models are fitted globally to the experimental traces, enabling determination of Kd or KD (binding affinity; unit: M) and possibly kon (on-rate, calculated from the association phase; unit: M^−1s^−1) and koff (off-rate, calculated from the dissociation phase; unit: s^−1).
(§3) A sensor chip (SAD5001 or SA) was docked into a Biacore 3000 instrument, washed with 50 mM NaOH, 1M NaCl. Protein eIF4E was diluted in running buffer (50 mM HEPES, 150 mM KCl, 10 mM MgCl2, 2 mM TCEP) to ˜1 μM. The diluted protein solution was injected for 300-600 seconds. Typical capture levels were 5000-6000 RU.
(§4) Test compounds were solubilized in ddH2O or DMSO to 10 mM. 100 μM stocks were prepared by 100-fold dilution in running buffer (50 mM HEPES, 150 mM KCl, 10 mM MgCl2). Assay was run with or without 1% DMSO.
(§5) Data were analyzed in GeneData. Curve fit was accepted or rejected by looking at the resulting sensorgrams and steady state fits.
(§6) Assay has been validated using running buffer with and without DMSO. […] Further, newly captured protein stabilizes slowly, leading to negative responses during the dissociation phase for compounds injected over newly captured protein.
In assay [3] the target is T1, eIF4E. In words: biochemical.
Experimental: as §1, §2, §3, §4, §5, §6
Assay [4] addresses T1, eIF4E. As to the kind of experiment: Binding affinities to eIF4E using surface plasmon resonance (SPR). The settings on record: for koff: read-out: koff (s^−1). (Surface plasmon resonance follows binding to a sensor surface in real time, without labels.)
Experimental: as §1, §2, §3, §4, §5, §6

In assay [1], `Cn1c[n+]([C@@H]2O[C@H](COP(=O)(O)OP(=O)([O-])OP(=O)(O)OC[C@H]3O[C@@H](n4cnc5c(=O)[nH]c(N)nc54)[C@H](O)[C@@H]3O)[C@@H](O)[C@H]2O)c2nc(N)[nH]c(=O)c21` [Cap0, m7GpppG, reference compound] came in with a half-inhibitory concentration (IC50) of 35 µM. This counts as double-digit micromolar.
In assay [1], `Nc1nc2c(ncn2[C@@H]2O[C@H](COP(=O)(O)OP(=O)(O)OP(=O)(O)OC[C@H]3O[C@@H](c4cn(CCOc5ccc(Cl)cc5)c5c(=O)[nH]c(N)nc45)[C@H](O)[C@@H]3O)[C@@H](O)[C@H]2O)c(=O)[nH]1` [Compound 005-1] had an IC50 of 25 µM. Also, in assay [2], the koff worked out at 0.08 s⁻¹.
In assay [3], `BP(=O)(OP(=O)([O-])OC[C@H]1O[C@@H](n2c[n+](CCOc3ccc(Cl)cc3)c3c(=O)[nH]c(N)nc32)[C@H](OC)[C@@H]1O)OP(=O)(O)OC[C@H]1O[C@@H](n2cnc3c(=O)[nH]c(N)nc32)[C@H](O)[C@@H]1O` (stereo partly drawn) [Compound 005-2] came in with a Kd of 0.1 µM. Also, in assay [4], the “τ” value was 83.33 s and the koff was 0.012 s⁻¹.
For the molecule `BP(=O)(OP(=O)([O-])OC[C@H]1O[C@@H](n2c[n+](C)c3c(=O)[nH]c(N)nc32)[C@H](OC)[C@@H]1O)OP(=O)(O)OC[C@H]1O[C@@H](n2cnc3c(=O)[nH]c(N)nc32)[C@H](O)[C@@H]1O` (stereo partly drawn) [Compound 005-3], in assay [3], the Kd lay within 0.5 to 1.1 µM.
For the molecule `CO[C@@H]1[C@H](O)[C@@H](COP(=O)(O)OP(=O)([O-])OP(=O)(O)OC[C@H]2O[C@@H](n3cnc4c(=O)[nH]c(N)nc43)[C@H](O)[C@@H]2O)O[C@H]1n1c[n+](CCOc2ccc(Cl)cc2)c2c(=O)[nH]c(N)nc21` [Compound 005-5], in assay [1], the IC50 is 2 µM. Further, the koff in assay [2] stood at 0.04 s⁻¹. Besides, the affinity in assay [3], expressed as Kd, was 0.2 µM.
Consider `CO[C@@H]1[C@H](O)[C@@H](COP(=O)(O)OP(=O)([O-])OP(=O)([O-])OP(=O)(O)OC[C@H]2O[C@@H](n3c[n+](C)c4c(=O)[nH]c(N)nc43)[C@H](O)[C@@H]2O)O[C@H]1n1c[n+](C)c2c(=O)[nH]c(N)nc21` [Compound 005-6], for which the koff in assay [2] came to 0.41 s⁻¹. The molecule further had a Kd in assay [3] of 1.1 µM.
In assay [2], `CO[C@@H]1[C@H](O)[C@@H](COP(=O)([O-])OP(=O)([O-])OP(=O)(O)OC[C@H]2O[C@@H](n3c[n+](C)c4c(=O)[nH]c(N)nc43)[C@H](O)[C@@H]2O)O[C@H]1n1c[n+](C)c2c(=O)[nH]c(N)nc21` [Compound 005-7] showed a koff of 0.26 s⁻¹. This molecule also had a Kd in assay [3] of 2.7 µM.
For `CO[C@@H]1[C@H](O)[C@@H](COP(=O)([O-])OP(=O)([O-])OC[C@H]2O[C@@H](n3c[n+](C)c4c(=O)[nH]c(N)nc43)[C@H](O)[C@@H]2O)O[C@H]1n1c[n+](C)c2c(=O)[nH]c(N)nc21` [Compound 005-8] the same measures were 3.8 s⁻¹ and 75 µM.
As to `C[n+]1cn([C@@H]2O[C@H](COP(=O)(O)OP(=O)([O-])OP(=O)([O-])OP(=O)(O)OC[C@H]3O[C@@H](n4c[n+](C)c5c(=O)[nH]c(N)nc54)[C@H](O)[C@@H]3O)[C@@H](O)[C@H]2O)c2nc(N)[nH]c(=O)c21` [Compound 005-9], the IC50 in assay [1] was found to be 9 µM. The same molecule displayed a koff in assay [2] of 0.41 s⁻¹. Also, the Kd in assay [3] was 1.1 µM and 1 µM.
`C[n+]1cn([C@@H]2O[C@H](COP(=O)(O)OP(=O)([O-])OP(=O)(O)OC[C@H]3O[C@@H](n4cnc5c(=O)[nH]c(N)nc54)[C@H](O)[C@@H]3O)[C@@H](O)[C@@H]2O)c2nc(N)[nH]c(=O)c21` [Compound 005-11] returned an IC50 in assay [1] of 92 µM. That is a double-digit micromolar value.
Regarding `COCCO[C@H]1[C@H](O)[C@@H](COP(=O)(O)OP(=O)([O-])OP(=O)(O)OC[C@H]2O[C@@H](n3cnc4c(=O)[nH]c(N)nc43)[C@H](O)[C@@H]2O)O[C@H]1n1c[n+](C)c2c(=O)[nH]c(N)nc21` [Compound 005-12], the IC50 in assay [1] turned out to be 21 µM. The molecule further gave a koff in assay [2] of 0.9 s⁻¹. Further, in assay [3], the Kd is 4.3 µM and 4 µM.
On to `C=CCn1c(=O)n([C@@H]2O[C@H](COP(=O)(O)OP(=O)(O)OP(=O)(O)OC[C@H]3O[C@@H](n4cnc5c(=O)[nH]c(N)nc54)[C@H](O)[C@@H]3O)[C@H]3OC(C)(C)O[C@@H]32)c2nc(N)[nH]c(=O)c21` [Compound 005-13], for which the IC50 in assay [1] is 318 µM. Moreover, in assay [3], binding was put at a Kd of 218 µM.
Regarding `CO[C@@H]1[C@H](O)[C@@H](COP(=O)(O)OP(=O)([O-])OP(=O)(O)OC[C@H]2O[C@@H](n3cnc4c(=O)[nH]c(N)nc43)[C@H](O)[C@@H]2O)O[C@H]1n1c[n+](C)c2c(=O)[nH]c(N)nc21` [Compound 005-14], the IC50 in assay [1] turned out to be 48 µM. The molecule further yielded a koff in assay [2] of 1.7 s⁻¹. Also, the Kd in assay [3] was 6.4 µM and 4 µM.
For the molecule `C[n+]1cn([C@@H]2O[C@H](COP(=O)([O-])OP(=O)([O-])OC[C@H]3O[C@@H](n4c[n+](C)c5c(=O)[nH]c(N)nc54)[C@H](O)[C@@H]3O)[C@@H](O)[C@H]2O)c2nc(N)[nH]c(=O)c21` [Compound 005-15], the koff in assay [2] worked out at 3.8 s⁻¹. The molecule also had a Kd in assay [3] of 75 µM.
For `COCCO[C@@H]1[C@H](O)[C@@H](COP(=O)(O)OP(=O)([O-])OP(=O)(O)OC[C@H]2O[C@@H](n3cnc4c(=O)[nH]c(N)nc43)[C@H](OC)[C@@H]2O)O[C@H]1n1c[n+](C)c2c(=O)[nH]c(N)nc21` [Compound 005-19] the same measures were 0.94 s⁻¹ and 4.2 µM.
As to `C[n+]1cn([C@H]2C[C@H](O)[C@@H](COP(=O)(O)OP(=O)([O-])OP(=O)(O)OC[C@H]3O[C@@H](n4cnc5c(=O)[nH]c(N)nc54)[C@H](O)[C@@H]3O)O2)c2nc(N)[nH]c(=O)c21` [Compound 005-31], the Kd in assay [3] was found to be 3.58 µM.
`BP(=O)(OP(=O)([O-])OC[C@H]1O[C@@H](n2c[n+](C)c3c(=O)[nH]c(N)nc32)[C@H](O)[C@@H]1O)OP(=O)(O)OC[C@H]1O[C@@H](n2cnc3c(=O)[nH]c(N)nc32)[C@H](O)[C@@H]1O` (stereo partly drawn) [Compound 005-32]: the affinity in assay [3], expressed as Kd, was 0.33 µM. In addition, in assay [4], the “τ” value is 9.09 s and the koff turned out to be 0.11 s⁻¹.
With `C#CCN1C[C@@H](COP(=O)([O-])OP(=O)(O)OP(=O)(O)OC[C@H]2O[C@@H](n3cnc4c(=O)[nH]c(N)nc43)[C@H](O)[C@@H]2O)O[C@@H](n2c[n+](C)c3c(=O)[nH]c(N)nc32)C1` [Compound 006-27], the koff in assay [2] came out at 1 s⁻¹. The same molecule registered a Kd in assay [3] of 9.1 µM.
As for `BP(=O)(OP(=O)([O-])OC[C@H]1O[C@@H](n2cnc3c(=O)[nH]c(N)nc32)[C@H](O)[C@@H]1O)OP(=O)(O)OCC1CN(C)CC(n2c[n+](C)c3c(=O)[nH]c(N)nc32)O1` (stereo partly drawn) [Compound 006-30], the Kd in assay [3] worked out at 1.7 µM. This lies in the single-digit micromolar range.
Regarding `C[n+]1cn(C2CN(Cc3ccccc3)CC(COP(=O)(O)OP(=O)([O-])OP(=O)([O-])OC[C@H]3O[C@@H](n4c[n+](C)c5c(=O)[nH]c(N)nc54)[C@H](O)[C@@H]3O)O2)c2nc(N)[nH]c(=O)c21` (stereo partly drawn) [Compound 006-31], in assay [2], the koff came to 0.33 s⁻¹. Binding in assay [3] was put at a Kd of 2.4 µM.
In assay [3], `C[n+]1cn(C(CO)OC(CO)COP(=O)(O)OP(=O)(O)OP(=O)(O)OC[C@H]2O[C@@H](n3cnc4c(=O)[nH]c(N)nc43)[C@H](O)[C@@H]2O)c2nc(N)[nH]c(=O)c21` (stereo partly drawn) [Compound 006-36] showed a Kd of 12 µM.
For the molecule `CO[C@@H]1[C@H](O)[C@@H](COP(=O)(O)OP(=O)([O-])OP(=O)(O)OCC2CN(C)CC(n3c[n+](C)c4c(=O)[nH]c(N)nc43)O2)O[C@H]1n1cnc2c(=O)[nH]c(N)nc21` (stereo partly drawn) [Compound 006-39], the koff in assay [2] is 1.5 s⁻¹. In assay [3], this molecule showed a Kd of 6.7 to 8.7 µM.
The like results for `CO[C@@H]1[C@H](O)[C@@H](COP(=O)(O)OP(=O)([O-])OP(=O)(O)OCC2CN(Cc3ccccc3)CC(n3c[n+](C)c4c(=O)[nH]c(N)nc43)O2)O[C@H]1n1cnc2c(=O)[nH]c(N)nc21` (stereo partly drawn) [Compound 006-40] were, in that order, 0.34 s⁻¹ and 1.7 µM.
The molecule `C[C@@]1(O)[C@H](O)[C@@H](COP(=O)(O)OP(=O)(O)OP(=O)(O)OC[C@H]2O[C@@H](n3cnc4c(=O)[nH]c(N)nc43)[C@H](O)[C@@H]2O)O[C@H]1n1c[n+](CCOc2ccc(Cl)cc2)c2c(=O)[nH]c(N)nc21` [Compound 007-37] yielded a koff in assay [2] of 0.057 s⁻¹. In assay [3], binding was characterised by a dissociation constant (Kd) of 0.1 µM.
For `CO[C@@H]1[C@H](O)[C@@H](COP(=O)(O)OP(=O)([O-])OP(=O)(O)OCC2O[C@@H](n3c[n+](C)c4c(=O)[nH]c(N)nc43)[C@](C)(O)[C@@H]2O)O[C@H]1n1cnc2c(=O)[nH]c(N)nc21` (stereo partly drawn) [Compound 007-38], the Kd in assay [3] came to 11 µM. In other words, the double-digit micromolar range.
On the same count and under the same terms, to `C[n+]1cn([C@@H]2O[C@H](COP(=O)([O-])OCCOCCOP(=O)([O-])OC[C@H]3O[C@@H](n4c[n+](C)c5c(=O)[nH]c(N)nc54)[C@H](O)[C@@H]3O)[C@@H](O)[C@H]2O)c2nc(N)[nH]c(=O)c21` [Compound 008-2] belongs 110 µM; to `C[n+]1cn([C@@H]2O[C@H](COP(=O)(O)OCCN(CCOP(=O)(O)OC[C@H]3O[C@@H](n4c[n+](C)c5c(=O)[nH]c(N)nc54)[C@H](O)[C@@H]3O)C(=O)OC(C)(C)C)[C@@H](O)[C@H]2O)c2nc(N)[nH]c(=O)c21` [Compound 008-25], 300 µM.
